The text below walks through data of patent publication US10894817B2, “Fatty acid modified urocortin-2 analogs for the treatment of diabetes and chronic kidney disease” (priority 2016, dated 2021).

For orientation: EC50 means the concentration that produces a half-maximal response.

Read-outs that look alike come from different tables or passages of the source. Starred links: 1 amine or outer side, 2 acyl side, 3 side chain; linkers in the order of their positions; H or OH if unused. Residues, ends and D or L forms follow the SMILES beside them. Groups on a side chain read outwards from the residue. *: point of attachment. C18 diacid = O=C(O)CCCCCCCCCCCCCCCCC(=O)*; γGlu = O=C(O)[C@H](CCC(=O)[*:2])N[*:1]; AEEA = NCCOCCOCC(=O)O

This assay has as its target T1, human CRHR2b (Homo sapiens, UniProt Q13324).
T1 construct: expressed in transfected cells; host or cells: Chinese Hamster Ovary (CHO) cells, transient transfection
T1 sequence (Q13324 1-438 isoform Q13324-2): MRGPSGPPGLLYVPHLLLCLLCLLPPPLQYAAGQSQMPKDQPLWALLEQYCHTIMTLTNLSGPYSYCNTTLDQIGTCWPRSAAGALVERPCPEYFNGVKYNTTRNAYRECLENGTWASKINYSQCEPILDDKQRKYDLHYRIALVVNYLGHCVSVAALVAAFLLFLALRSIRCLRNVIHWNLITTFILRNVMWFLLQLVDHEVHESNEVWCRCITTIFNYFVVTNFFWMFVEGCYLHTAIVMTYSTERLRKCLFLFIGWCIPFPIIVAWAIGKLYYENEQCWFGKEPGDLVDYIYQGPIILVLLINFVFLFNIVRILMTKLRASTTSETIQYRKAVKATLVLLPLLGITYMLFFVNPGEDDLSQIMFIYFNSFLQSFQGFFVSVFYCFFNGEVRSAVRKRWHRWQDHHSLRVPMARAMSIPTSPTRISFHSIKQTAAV
Kind of assay: human CRHR2b cell-based cAMP assay. The essentials: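 ED50 values are means ± SEM over several runs, curve-fitted from cAMP in pmol, calibrated against unlabeled-cAMP standards. Detection was HTRF competition, ratio 665/620 nm, after 30 min agonist exposure at 37 °C.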
A general note: cAMP levels reflect the balance of adenylyl cyclase and phosphodiesterase activity.

Setting [1] is: cAMP assay, Table 26, compounds of Example 9, read-out: hCRHR2b Average EC50.

As for `CC[C@H](C)[C@H](N)C(=O)N[C@H](C(=O)N[C@@H](CC(C)C)C(=O)N[C@@H](CO)C(=O)N[C@@H](CC(C)C)C(=O)N[C@@H](CC(=O)O)C(=O)N[C@H](C(=O)N1CCC[C@H]1C(=O)N[C@H](C(=O)NCC(=O)N[C@@H](CC(C)C)C(=O)N[C@@H](CC(C)C)C(=O)N[C@@H](CCC(N)=O)C(=O)N[C@H](C(=O)N[C@@H](CC(C)C)C(=O)N[C@@H](CC(C)C)C(=O)N[C@@H](CCC(=O)O)C(=O)N[C@@H](CCC(N)=O)C(=O)N[C@@H](CCC(=O)O)C(=O)N[C@@H](CCCCN)C(=O)N[C@@H](CCC(N)=O)C(=O)N[C@@H](CCC(=O)O)C(=O)N[C@@H](CCCCN)C(=O)N[C@@H](CCC(=O)O)C(=O)N[C@@H](CCCCN)C(=O)N[C@@H](CCCCNC(=O)COCCOCCNC(=O)COCCOCCNC(=O)CC[C@H](NC(=O)CC[C@H](NC(=O)CCCCCCCCCCCCCCCCC(=O)O)C(=O)O)C(=O)O)C(=O)N[C@@H](CCC(N)=O)C(=O)N[C@@H](C)C(=O)N[C@H](C(=O)N[C@H](C(=O)N[C@@H](CC(N)=O)C(=O)N[C@@H](C)C(=O)N[C@@H](CCC(N)=O)C(=O)N[C@H](C(=O)N[C@@H](CC(C)C)C(=O)N[C@@H](C)C(=O)N[C@@H](Cc1c[nH]cn1)C(=O)N[C@H](C(N)=O)C(C)C)[C@@H](C)CC)[C@@H](C)O)[C@@H](C)O)[C@@H](C)CC)[C@@H](C)CC)C(C)C)C(C)C` [Compound 47] (H-IVLSLDVPIGLLQILLEQEKQEKEKK([AEEA-AEEA-γGlu-γGlu-C18 diacid])QATTNAQILAHV-NH2), the EC50 under setting [1] came to 4.56 nM. For the compound `CC[C@H](C)[C@H](N)C(=O)N[C@H](C(=O)N[C@@H](CC(C)C)C(=O)N[C@@H](CO)C(=O)N[C@@H](CC(C)C)C(=O)N[C@@H](CC(=O)O)C(=O)N[C@H](C(=O)N1CCC[C@H]1C(=O)N[C@H](C(=O)NCC(=O)N[C@@H](CC(C)C)C(=O)N[C@@H](CC(C)C)C(=O)N[C@@H](CCC(N)=O)C(=O)N[C@H](C(=O)N[C@@H](CC(C)C)C(=O)N[C@@H](CC(C)C)C(=O)N[C@@H](CCC(=O)O)C(=O)N[C@@H](CCC(N)=O)C(=O)N[C@@H](CCC(=O)O)C(=O)N[C@@H](CCCCN)C(=O)N[C@@H](CCC(N)=O)C(=O)N[C@@H](CCC(=O)O)C(=O)N[C@@H](CCCCN)C(=O)N[C@@H](CCC(=O)O)C(=O)N[C@@H](CCCCN)C(=O)N[C@@H](CCC(N)=O)C(=O)N[C@@H](CCC(N)=O)C(=O)N[C@@H](C)C(=O)N[C@@H](CCCCNC(=O)COCCOCCNC(=O)COCCOCCNC(=O)CC[C@H](NC(=O)CC[C@H](NC(=O)CCCCCCCCCCCCCCCCC(=O)O)C(=O)O)C(=O)O)C(=O)N[C@H](C(=O)N[C@@H](CC(N)=O)C(=O)N[C@@H](C)C(=O)N[C@@H](CCC(N)=O)C(=O)N[C@H](C(=O)N[C@@H](CC(C)C)C(=O)N[C@@H](C)C(=O)N[C@@H](Cc1c[nH]cn1)C(=O)N[C@H](C(N)=O)C(C)C)[C@@H](C)CC)[C@@H](C)O)[C@@H](C)CC)[C@@H](C)CC)C(C)C)C(C)C` [Compound 48] (H-IVLSLDVPIGLLQILLEQEKQEKEKQQAK([AEEA-AEEA-γGlu-γGlu-C18 diacid])TNAQILAHV-NH2), the EC50 under setting [1] came out at 3.61 nM. Turning to `CC[C@H](C)[C@H](N)C(=O)N[C@H](C(=O)N[C@@H](CC(C)C)C(=O)N[C@@H](CO)C(=O)N[C@@H](CC(C)C)C(=O)N[C@@H](CC(=O)O)C(=O)N[C@H](C(=O)N1CCC[C@H]1C(=O)N[C@H](C(=O)N[C@@H](CCCCNC(=O)COCCOCCNC(=O)COCCOCCNC(=O)CC[C@H](NC(=O)CC[C@H](NC(=O)CCCCCCCCCCCCCCCCC(=O)O)C(=O)O)C(=O)O)C(=O)N[C@@H](CC(C)C)C(=O)N[C@@H](CC(C)C)C(=O)N[C@@H](CCC(N)=O)C(=O)N[C@H](C(=O)N[C@@H](CC(C)C)C(=O)N[C@@H](CC(C)C)C(=O)N[C@@H](CCC(=O)O)C(=O)N[C@@H](CCC(N)=O)C(=O)N[C@@H](CCC(=O)O)C(=O)N[C@@H](CCCCN)C(=O)N[C@@H](CCC(N)=O)C(=O)N[C@@H](CCC(=O)O)C(=O)N[C@@H](CCCCN)C(=O)N[C@@H](CCC(=O)O)C(=O)N[C@@H](CCCCN)C(=O)N[C@@H](CCC(N)=O)C(=O)N[C@@H](CCC(N)=O)C(=O)N[C@@H](C)C(=O)N[C@H](C(=O)N[C@H](C(=O)N[C@@H](CC(N)=O)C(=O)N[C@@H](C)C(=O)N[C@@H](CCC(N)=O)C(=O)N[C@H](C(=O)N[C@@H](CC(C)C)C(=O)N[C@@H](C)C(=O)N[C@@H](CCC(N)=O)C(=O)N[C@H](C(N)=O)C(C)C)[C@@H](C)CC)[C@@H](C)O)[C@@H](C)O)[C@@H](C)CC)[C@@H](C)CC)C(C)C)C(C)C` [Compound 49] (H-IVLSLDVPIK([AEEA-AEEA-γGlu-γGlu-C18 diacid])LLQILLEQEKQEKEKQQATTNAQILAQV-NH2), the EC50 under setting [1] stood at 2.86 nM.

`CC[C@H](C)[C@H](N)C(=O)N[C@H](C(=O)N[C@@H](CC(C)C)C(=O)N[C@@H](CO)C(=O)N[C@@H](CC(C)C)C(=O)N[C@@H](CC(=O)O)C(=O)N[C@H](C(=O)N1CCC[C@H]1C(=O)N[C@H](C(=O)NCC(=O)N[C@@H](CC(C)C)C(=O)N[C@@H](CC(C)C)C(=O)N[C@@H](CCC(N)=O)C(=O)N[C@H](C(=O)N[C@@H](CC(C)C)C(=O)N[C@@H](CC(C)C)C(=O)N[C@@H](CCCCNC(=O)COCCOCCNC(=O)COCCOCCNC(=O)CC[C@H](NC(=O)CC[C@H](NC(=O)CCCCCCCCCCCCCCCCC(=O)O)C(=O)O)C(=O)O)C(=O)N[C@@H](CCC(N)=O)C(=O)N[C@@H](CCC(=O)O)C(=O)N[C@@H](CCCCN)C(=O)N[C@@H](CCC(N)=O)C(=O)N[C@@H](CCC(=O)O)C(=O)N[C@@H](CCCCN)C(=O)N[C@@H](CCC(=O)O)C(=O)N[C@@H](CCCCN)C(=O)N[C@@H](CCC(N)=O)C(=O)N[C@@H](CCC(N)=O)C(=O)N[C@@H](C)C(=O)N[C@H](C(=O)N[C@H](C(=O)N[C@@H](CC(N)=O)C(=O)N[C@@H](C)C(=O)N[C@@H](CCC(N)=O)C(=O)N[C@H](C(=O)N[C@@H](CC(C)C)C(=O)N[C@@H](C)C(=O)N[C@@H](CCC(N)=O)C(=O)N[C@H](C(N)=O)C(C)C)[C@@H](C)CC)[C@@H](C)O)[C@@H](C)O)[C@@H](C)CC)[C@@H](C)CC)C(C)C)C(C)C` [Compound 50] (H-IVLSLDVPIGLLQILLK([AEEA-AEEA-γGlu-γGlu-C18 diacid])QEKQEKEKQQATTNAQILAQV-NH2) came in with an EC50 of 3.56 nM. Regarding `CC[C@H](C)[C@H](N)C(=O)N[C@H](C(=O)N[C@@H](CC(C)C)C(=O)N[C@@H](CO)C(=O)N[C@@H](CC(C)C)C(=O)N[C@@H](CC(=O)O)C(=O)N[C@H](C(=O)N1CCC[C@H]1C(=O)N[C@H](C(=O)NCC(=O)N[C@@H](CC(C)C)C(=O)N[C@@H](CC(C)C)C(=O)N[C@@H](CCC(N)=O)C(=O)N[C@H](C(=O)N[C@@H](CC(C)C)C(=O)N[C@@H](CC(C)C)C(=O)N[C@@H](CCC(=O)O)C(=O)N[C@@H](CCC(N)=O)C(=O)N[C@@H](CCC(=O)O)C(=O)N[C@@H](CCCCN)C(=O)N[C@@H](CCC(N)=O)C(=O)N[C@@H](CCC(=O)O)C(=O)N[C@@H](CCCCN)C(=O)N[C@@H](CCC(=O)O)C(=O)N[C@@H](CCCCN)C(=O)N[C@@H](CCCCNC(=O)COCCOCCNC(=O)COCCOCCNC(=O)CC[C@H](NC(=O)CC[C@H](NC(=O)CCCCCCCCCCCCCCCCC(=O)O)C(=O)O)C(=O)O)C(=O)N[C@@H](CCC(N)=O)C(=O)N[C@@H](C)C(=O)N[C@H](C(=O)N[C@H](C(=O)N[C@@H](CC(N)=O)C(=O)N[C@@H](C)C(=O)N[C@@H](CCC(N)=O)C(=O)N[C@H](C(=O)N[C@@H](CC(C)C)C(=O)N[C@@H](C)C(=O)N[C@@H](CCC(N)=O)C(=O)N[C@H](C(N)=O)C(C)C)[C@@H](C)CC)[C@@H](C)O)[C@@H](C)O)[C@@H](C)CC)[C@@H](C)CC)C(C)C)C(C)C` [Compound 51] (H-IVLSLDVPIGLLQILLEQEKQEKEKK([AEEA-AEEA-γGlu-γGlu-C18 diacid])QATTNAQILAQV-NH2), the EC50 under setting [1] turned out to be 2.42 nM. With `CC[C@H](C)[C@H](N)C(=O)N[C@H](C(=O)N[C@@H](CC(C)C)C(=O)N[C@@H](CO)C(=O)N[C@@H](CC(C)C)C(=O)N[C@@H](CC(=O)O)C(=O)N[C@H](C(=O)N1CCC[C@H]1C(=O)N[C@H](C(=O)NCC(=O)N[C@@H](CC(C)C)C(=O)N[C@@H](CC(C)C)C(=O)N[C@@H](CCC(N)=O)C(=O)N[C@H](C(=O)N[C@@H](CC(C)C)C(=O)N[C@@H](CC(C)C)C(=O)N[C@@H](CCC(=O)O)C(=O)N[C@@H](CCC(N)=O)C(=O)N[C@@H](CCC(=O)O)C(=O)N[C@@H](CCCCN)C(=O)N[C@@H](CCC(N)=O)C(=O)N[C@@H](CCC(=O)O)C(=O)N[C@@H](CCCCN)C(=O)N[C@@H](CCC(=O)O)C(=O)N[C@@H](CCCCN)C(=O)N[C@@H](CCC(N)=O)C(=O)N[C@@H](CCC(N)=O)C(=O)N[C@@H](C)C(=O)N[C@@H](CCCCNC(=O)COCCOCCNC(=O)COCCOCCNC(=O)CC[C@H](NC(=O)CC[C@H](NC(=O)CCCCCCCCCCCCCCCCC(=O)O)C(=O)O)C(=O)O)C(=O)N[C@H](C(=O)N[C@@H](CC(N)=O)C(=O)N[C@@H](C)C(=O)N[C@@H](CCC(N)=O)C(=O)N[C@H](C(=O)N[C@@H](CC(C)C)C(=O)N[C@@H](C)C(=O)N[C@@H](CCC(N)=O)C(=O)N[C@H](C(N)=O)C(C)C)[C@@H](C)CC)[C@@H](C)O)[C@@H](C)CC)[C@@H](C)CC)C(C)C)C(C)C` [Compound 52] (H-IVLSLDVPIGLLQILLEQEKQEKEKQQAK([AEEA-AEEA-γGlu-γGlu-C18 diacid])TNAQILAQV-NH2), under setting [1], the EC50 is 1.16 nM.
